Reference: ChEMBL document CHEMBL3233012, “Synthesis, antimicrobial and cytotoxic activities of pyrimidinyl benzoxazole, benzothiazole and benzimidazole” (Eur J Med Chem, 2014)
In brackets after ≈: the same amount, converted by molar mass. Activity calls are given as the source filed them. The rule behind the calls is not given here.

Experiments:
[1] = tested on: Pseudomonas aeruginosa; assay: Antimicrobial activity against Pseudomonas aeruginosa at 50 ug/well after 24 hrs by agar well diffusion method; type: functional; conditions: read-out: DIZ
[2] = tested on: Escherichia coli; assay: Ratio of MBC to MIC for Escherichia coli ATCC 25922; type: functional
[3] = tested on: Pseudomonas aeruginosa; assay: Ratio of MBC to MIC for Pseudomonas aeruginosa ATCC 27853; type: functional
[4] = tested on: Penicillium chrysogenum; assay: Antimicrobial activity against Penicillium chrysogenum after 24 hrs; type: functional
[5] = tested on: Penicillium chrysogenum; assay: Antimicrobial activity against Penicillium chrysogenum at 100 ug/well after 48 hrs by agar well diffusion method; type: functional; conditions: read-out: DIZ
[6] = tested on: Pseudomonas aeruginosa; assay: Antimicrobial activity against Pseudomonas aeruginosa at 25 ug/well after 24 hrs by agar well diffusion method; type: functional; conditions: read-out: DIZ
[7] = tested on: Staphylococcus aureus; assay: Ratio of MBC to MIC for Staphylococcus aureus ATCC 25923; type: functional
[8] = tested on: Escherichia coli; assay: Antimicrobial activity against Escherichia coli at 25 ug/well after 24 hrs by agar well diffusion method; type: functional; conditions: read-out: DIZ
[9] = tested on: Aspergillus niger; assay: Ratio of MBC to MIC for Aspergillus niger; type: functional
[10] = tested on: Staphylococcus aureus; assay: Antimicrobial activity against Staphylococcus aureus at 100 ug/well after 24 hrs by agar well diffusion method; type: functional; conditions: read-out: DIZ
[11] = tested on: Pseudomonas aeruginosa; assay: Antimicrobial activity against Pseudomonas aeruginosa ATCC 27853 after 24 hrs by broth dilution method; type: functional; conditions: ATCC 27853, 24 h
[12] = tested on: Penicillium chrysogenum; assay: Antimicrobial activity against Penicillium chrysogenum at 25 ug/well after 48 hrs by agar well diffusion method; type: functional; conditions: read-out: DIZ
[13] = tested on: Staphylococcus aureus; assay: Antimicrobial activity against Staphylococcus aureus at 50 ug/well after 24 hrs by agar well diffusion method; type: functional; conditions: read-out: DIZ
[14] = tested on: Aspergillus niger; assay: Antimicrobial activity against Aspergillus niger at 50 ug/well after 48 hrs by agar well diffusion method; type: functional; conditions: read-out: DIZ
[15] = tested on: Escherichia coli; assay: Antimicrobial activity against Escherichia coli ATCC 25922 after 24 hrs; type: functional; conditions: ATCC 25922, 24 h
[16] = tested on: Escherichia coli; assay: Antimicrobial activity against Escherichia coli ATCC 25922 after 24 hrs by broth dilution method; type: functional; conditions: ATCC 25922, 24 h
[17] = tested on: Staphylococcus aureus; assay: Antimicrobial activity against Staphylococcus aureus at 25 ug/well after 24 hrs by agar well diffusion method; type: functional; conditions: read-out: DIZ
[18] = tested on: Escherichia coli; assay: Antimicrobial activity against Escherichia coli at 50 ug/well after 24 hrs by agar well diffusion method; type: functional; conditions: read-out: DIZ
[19] = tested on: Penicillium chrysogenum; assay: Antimicrobial activity against Penicillium chrysogenum after 24 hrs by broth dilution method; type: functional
[20] = tested on: Staphylococcus aureus; assay: Antimicrobial activity against Staphylococcus aureus ATCC 25923 after 24 hrs; type: functional; conditions: ATCC 25923, 24 h
[21] = tested on: Aspergillus niger; assay: Antimicrobial activity against Aspergillus niger after 24 hrs; type: functional
[22] = tested on: Staphylococcus aureus; assay: Antimicrobial activity against Staphylococcus aureus ATCC 25923 after 24 hrs by broth dilution method; type: functional; conditions: ATCC 25923, 24 h
[23] = tested on: Aspergillus niger; assay: Antimicrobial activity against Aspergillus niger at 100 ug/well after 48 hrs by agar well diffusion method; type: functional; conditions: read-out: DIZ
[24] = tested on: Penicillium chrysogenum; assay: Ratio of MBC to MIC for Penicillium chrysogenum; type: functional
[25] = tested on: Pseudomonas aeruginosa; assay: Antimicrobial activity against Pseudomonas aeruginosa at 100 ug/well after 24 hrs by agar well diffusion method; type: functional; conditions: read-out: DIZ
[26] = tested on: Pseudomonas aeruginosa; assay: Antimicrobial activity against Pseudomonas aeruginosa ATCC 27853 after 24 hrs; type: functional; conditions: ATCC 27853, 24 h
[27] = tested on: Escherichia coli; assay: Antimicrobial activity against Escherichia coli at 100 ug/well after 24 hrs by agar well diffusion method; type: functional; conditions: read-out: DIZ
[28] = tested on: Aspergillus niger; assay: Antimicrobial activity against Aspergillus niger at 25 ug/well after 48 hrs by agar well diffusion method; type: functional; conditions: read-out: DIZ
[29] = tested on: Aspergillus niger; assay: Antimicrobial activity against Aspergillus niger after 24 hrs by broth dilution method; type: functional
[30] = tested on: A549; assay: Cytotoxicity against human A549 cells assessed as reduction in cell viability up to 200 uM after 20 hrs by MTT assay; type: functional, cell-based
[31] = tested on: Penicillium chrysogenum; assay: Antimicrobial activity against Penicillium chrysogenum at 50 ug/well after 48 hrs by agar well diffusion method; type: functional; conditions: read-out: DIZ

`Cc1cc(SCc2nc3ccccc3o2)nc(SCc2nc3ccccc3o2)n1` showed a zone of inhibition at 50 µg/disc [1] of 20 mm, a Ratio [2] greater than 2 and a Ratio [3] greater than 2. It also gave an MFC [4] greater than 200 µg/mL, a zone of inhibition at 100 µg/disc [5] of 33 mm and a zone of inhibition at 25 µg/disc [6] of 17 mm. The Ratio [7] was greater than 2, the zone of inhibition at 25 µg/disc [8] was 21 mm and the Ratio [9] was greater than 2. It also gave a zone of inhibition at 100 µg/disc [10] of 23 mm, an MIC [11] of 100 µg/mL (≈ 238 µM) and a zone of inhibition at 25 µg/disc [12] of 28 mm. The zone of inhibition at 50 µg/disc [13] was 22 mm, the zone of inhibition at 50 µg/disc [14] was 22 mm and the MBC [15] was greater than 200 µg/mL. It also gave an MIC [16] of 100 µg/mL (≈ 238 µM), a zone of inhibition at 25 µg/disc [17] of 20 mm and a zone of inhibition at 50 µg/disc [18] of 24 mm. For the same compound, the MIC [19] was 100 µg/mL (≈ 238 µM), the MBC [20] was greater than 200 µg/mL and the MFC [21] was greater than 200 µg/mL. For the same compound, the MIC [22] was 50 µg/mL (≈ 119 µM), the zone of inhibition at 100 µg/disc [23] was 24 mm and the Ratio [24] was greater than 2. It also gave a zone of inhibition at 100 µg/disc [25] of 22 mm, an MBC [26] greater than 200 µg/mL and a zone of inhibition at 100 µg/disc [27] of 29 mm. The zone of inhibition at 25 µg/disc [28] was 20 mm, the MIC [29] was 100 µg/mL (≈ 238 µM) and the Activity [30] was “inactive”. For the same compound, the zone of inhibition at 50 µg/disc [31] was 30 mm.
